Source: patent US6706740B2, “Fungicidal heterocyclic aromatic amides and their compositions, methods of use and preparation” (Dow AgroSciences LLC, priority 1999, dated 2004)
Read-outs that look alike come from different tables or passages of the source.

Columns and labels:
[1] = tested on: Leptosphaeria nodorum—LEPTNO; test: Glume Blotch of Wheat, in vivo whole plant, 24 Hour Protectant; details: for pest or weed control at 100 ppm: Leptosphaeria, read-out: LEPTNO in vivo 1 Day Protectant
Ustilago maydis (USTIMA) = test: microbe, parasite or virus in culture; assay type: cell-based; details: Mycosarcoma maydis, read-out: USTIMA in vitro Growth Inhibition
[2] = tested on: Phytophthora infestans (PHYTIN); test: microbe, parasite or virus in culture; assay type: cell-based; details: Phytophthora infestans, read-out: PHYTIN in vitro Growth Inhibition
[3] = tested on: Puccinia recondita—PUCCRT; test: Brown Rust of Wheat, in vivo whole plant, 24 Hour Protectant; details: for pest or weed control at 100 ppm: Puccinia, read-out: PUCCRT in vivo 1 Day Protectant
Septoria tritici—SEPTTR = test: Leaf Blotch of Wheat, in vivo whole plant, 24 Hour Protectant; details: for pest or weed control at 100 ppm: Zymoseptoria tritici, 24 h, read-out: SEPTTR in vivo 1 Day Protectant
[4] = tested on: Rhizoctonia solani (RHIZSO); test: microbe, parasite or virus in culture; assay type: cell-based; details: Rhizoctonia solani, read-out: RHIZSO in vitro Growth Inhibition
[5] = tested on: Magnaporthe grisea (Pyricularia oryzae—PYRIOR); test: microbe, parasite or virus in culture; assay type: cell-based; details: Pyricularia oryzae, read-out: PYRIOR in vitro Growth Inhibition
Erysiphe graminis—ERYSGT = test: Powdery Mildew of Wheat, in vivo whole plant, 24 Hour Protectant; details: for pest or weed control at 100 ppm: Erysiphe, read-out: ERYSGT in vivo 1 Day Protectant
[6] = tested on: Stagonospora nodorum (Leptosphaeria nodorum—LEPTNO); test: In vitro fungal growth inhibition, Stagonospora nodorum (LEPTNO); assay type: cell-based; details: Leptosphaeria, read-out: LEPTNO in vitro Growth Inhibition
[7] = tested on: Mycosphaerella graminicola (Septoria tritici—SEPTTR); test: In vitro fungal growth inhibition, Mycosphaerella graminicola (SEPTTR); assay type: cell-based; details: Zymoseptoria tritici, read-out: SEPTTR in vitro Growth Inhibition
[8] = tested on: Phytophthora infestans—PHYTIN; test: whole plant or invertebrate; assay type: in vivo; details: Phytophthora, in Solanum lycopersicum, 24 h, read-out: PHYTIN in vivo 1 Day Protectant
[9] = 100 ppm spray, wheat, 24 hour protectant, % control of fungal infection vs untreated plants
[10] = wheat plants sprayed at 100 ppm, inoculated after 24 hours, control of fungal infection vs untreated plants
[11] = 100 ppm spray, 24 hour protectant, wheat, control of fungal infection vs untreated plants

Row | Structure (SMILES) | inhibition at 25 ppm (Ustilago maydis (USTIMA)) [%] | inhibition at 25 ppm [2] [%] | inhibition at 25 ppm [4] [%] | inhibition at 25 ppm [5] [%] | inhibition at 25 ppm ([6]; 25 ppm in growth medium) [%] | inhibition at 25 ppm ([7]; 25 ppm in growth medium) [%] | pest or weed control at 100 ppm [8] [%] | pest or weed control at 100 ppm [1, 10] [%] | pest or weed control at 100 ppm [3, 10] [%] | pest or weed control at 100 ppm (Septoria tritici—SEPTTR; [10]) [%] | pest or weed control at 100 ppm (Erysiphe graminis—ERYSGT; [10]) [%] | inhibition at 25 ppm ([6]; 25 ppm in the growth medium) [%] | inhibition at 25 ppm ([7]; 25 ppm in the growth medium) [%] | further results
1 | COCCC(=O)Oc1c(OC)ccnc1C(=O)Nc1ccc(C(=O)Oc2cccc(C(F)(F)F)c2)cc1 [Compound 716] | < 80 | < 80 | < 80 | < 80 | < 80 | < 80 | < 25 | – | – | – | – | – | – | pest or weed control at 100 ppm [1, 9]: 25 to 74%; pest or weed control at 100 ppm [3, 9]: 25 to 74%; pest or weed control at 100 ppm (Septoria tritici—SEPTTR; [9]): 25 to 74%; pest or weed control at 100 ppm (Erysiphe graminis—ERYSGT; [9]): < 25%
2 | N#Cc1ccc(Oc2cccc(NC(=O)c3nc(Br)ccc3O)c2)cc1 [Compound 500] | < 80 | < 80 | < 80 | < 80 | – | – | < 25 | < 25 | < 25 | 25 to 74 | < 25 | < 80 | < 80 | –
3 | O=C(NCc1sccc1Cl)c1nc(Br)ccc1O [Compound 484] | < 80 | < 80 | < 80 | < 80 | – | – | < 25 | < 25 | < 25 | < 25 | < 25 | < 80 | < 80 | –
4 | COc1ccnc(C(=O)NC2C3CSC2CN(Cc2ccccc2)C3)c1O (centres unmarked) [Compound 325] | < 80 | < 80 | < 80 | < 80 | < 80 | < 80 | < 25 | – | – | – | – | – | – | pest or weed control at 100 ppm [1, 11]: 25 to 74%; pest or weed control at 100 ppm [3, 11]: < 25%; pest or weed control at 100 ppm (Septoria tritici—SEPTTR; [11]): < 25%; pest or weed control at 100 ppm (Erysiphe graminis—ERYSGT; [11]): < 25%
5 | COc1ccnc(C(=O)NC2CCCCCCC2)c1O [Compound 282] | < 80 | < 80 | < 80 | < 80 | < 80 | < 80 | < 25 | – | – | – | – | – | – | pest or weed control at 100 ppm [1, 11]: 25 to 74%; pest or weed control at 100 ppm [3, 11]: 25 to 74%; pest or weed control at 100 ppm (Septoria tritici—SEPTTR; [11]): 25 to 74%; pest or weed control at 100 ppm (Erysiphe graminis—ERYSGT; [11]): < 25%
6 | CCOC(=O)Oc1c(OC)ccnc1C(=O)N[C@H]1COC(=O)[C@H](Cc2ccccc2)[C@@H](OC(=O)C(C)C)[C@H](C)OC1=O [Compound 679] | < 80 | < 80 | > 80 | > 80 | < 80 | < 80 | < 25 | – | – | – | – | – | – | LEPTNO in vivo 1 Day Protectant [1, 9]: + +; PUCCRT in vivo 1 Day Protectant [3, 9]: + +; SEPTTR in vivo 1 Day Protectant (Septoria tritici—SEPTTR; [9]): + +; ERYSGT in vivo 1 Day Protectant (Erysiphe graminis—ERYSGT; [9]): + +
7 | COc1ccnc(C(=O)Nc2ccc(Oc3ccc(C(F)(F)F)cc3)nc2)c1O [Compound 472] | < 80 | < 80 | < 80 | > 80 | – | – | < 25 | 25 to 74 | 25 to 74 | 25 to 74 | < 25 | < 80 | < 80 | –
